Experimental findings from article PMC11930913, “Anticancer, antioxidant and antibacterial potential of L-Glutaminase (Streptomyces roseolus strain ZKB1) capped silver and zinc oxide nanoparticles and its molecular characterization” (Bioresources and Bioprocessing, 2025) are described below.

The test system of the assay is T1, L-Glutaminase (Streptomyces roseolus strain ZKB1).
T1 construct: gene glsA
Put plainly: ammonia release by Nessler's reagent, […] nm; Lineweaver-Burk. The class given is cell-based. Conditions: free enzyme; phosphate buffer pH 7.0; 37 °C; 30 min; 25-100 mM substrate.

With `NC(=O)CC[C@H](N)C(=O)O` [L-glutamine], the Km worked out at 13.9 ± 0.8 mM.
